Measured values published in patent US7968522B2, “Treatment and prophylaxis of sepsis and septic shock” (Polytechnic Institute of NYU, priority 2003, dated 2011).
Entries after “also recorded” stand apart in the source; their conditions may differ.

System: RAW 264.7 cells
Assay: LPS-induced NO production (nitrite, Griess reaction) in mouse macrophages
Assay type: cell-based
Details: for effect on LPS-induced NO production: varying concentrations, added 1.5 h before, after or simultaneously with LPS
Protocol: As nitric oxide production is a useful marker of macrophage response to bacterial LPS, the in vitro model system is a valuable tool for examining the modulating effects of sophorolipids on LPS-induced macrophage responses under controlled conditions. Mouse macrophages (RAW 264.7, ATCC) were incubated in the presence of LPS (Salmonella typhimurium, Sigma #6511) (50 ng/ml, an optimal dose for inducing NO production), and varying concentrations of sophorolipids (SL, natural mixture), sophorolipid diethyl ester (E), and corresponding sophorolipid diacetate (K). Sophorolipids were added 1.5 hours before, 1.5 hours after, or simultaneously with LPS. Aliquots of culture supernatants were collected after 5 days and NO content was determined by measuring nitrite (modified Griess reaction). Briefly, triplicate 50 μl aliquots of the culture supernatant were mixed in wells of a 96-well microtiter plate with 100 μl of Griess reagent containing a 1:1 (vol/vol) mixture of 1% (wt/vol) sulfanilamide in 30% acetic acid and 0.5% (wt/vol) of N-(-1-Naphthyl)ethylenediamine dihydrochloride in 60% acetic acid. Chromophore generated by the reaction with nitrite was detected spectrophotometrically (550 nm) using a microtiterplate reader (ELx 800, BioTek Instruments, Winooski, Vt.). The concentration of nitrite was calculated by using calibration with known concentrations of NaNO2.
This in vitro model system made it possible to examine in detail the effects of sophorolipids on LPS induced NO production as a marker of the acute inflammatory pathway that leads to septic shock in vivo. NO production appeared to depend on the sequence of addition of sophorolipids relative to LPS. The in vitro effects were most pronounced when sophorolipids were introduced either before or simultaneously with LPS.

`CCOC(=O)CCCCCCC/C=C\CCCCCCC(C)O[C@@H]1O[C@H](CO)[C@@H](O)[C@H](O)[C@H]1O[C@@H]1O[C@H](CO)[C@@H](O)[C@H](O)[C@H]1O` (relative stereo) [E, Ethyl 17-L-[(2′-O-β-D-glucopyranosyl-β-D-glucopyranosyl)-oxy]-cis-9-octadecenoate] was tested. Which “rating of the potency of inhibitory activities on LPS induced NO production” value (RAW 264.7 cells, LPS 50 ng/ml) did it give?
The value was “E>SL>K; also recorded: least inhibitory and the most variable effects”.

What about the “inhibition of LPS-induced NO production (plateau / maximum)” value (at 25 ng/ml, LPS 50 ng/ml, RAW 264.7 cells, supernatants after 5 days) of the same compound?
Its value is 60-65%.

And the “effect on LPS-induced NO production” value?
The value was “inhibited LPS-induced NO production in a dose- and time-dependent manner”.

How did the “rating of the potency of inhibitory activities on LPS induced NO production” value (RAW 264.7 cells, LPS 50 ng/ml) turn out when `CCOC(=O)CCCCCCC/C=C\CCCCCCC(C)O[C@@H]1O[C@H](COC(C)=O)[C@@H](O)[C@H](O)[C@H]1O[C@@H]1O[C@H](COC(C)=O)[C@@H](O)[C@H](O)[C@H]1O` (relative stereo) [K, Ethyl 17-L[(2′-O-β-D glucopyranosyl-β-D-glucopyranosyl)-oxy]-cis-9-octadecenoate 6′,6″-diacetate] was run?
The value was “E>SL>K”.

And the “effect on LPS-induced NO production” value?
Its value is “inhibited LPS-induced NO production in a dose- and time-dependent manner”.
